Source: ChEMBL document CHEMBL5113500, “New brefeldin A-cinnamic acid ester derivatives as potential antitumor agents: Design, synthesis and biological evaluation” (Eur J Med Chem, 2022)
≈ marks a conversion by molar mass, not a printed value.

How the values were obtained:
HepG2 [1] = experiment: Antiproliferative activity against human HepG2 cells assessed as cell growth inhibition at 1 uM measured after 72 hrs by MTT assay relative to control; type: functional; settings: read-out: GI
HeLa = experiment: Antiproliferative activity against human HeLa cells measured after 72 hrs by MTT assay; type: functional, cell-based
HepG2 [2] = experiment: Antiproliferative activity against human HepG2 cells measured after 72 hrs by MTT assay; type: functional, cell-based; settings: HepG2, 72 h
PANC-1 = experiment: Antiproliferative activity against human PANC-1 cells measured after 72 hrs by MTT assay; type: functional, cell-based; settings: PANC-1, 72 h
ECa-109 cell line = experiment: Antiproliferative activity against human Eca-109 cells measured after 72 hrs by MTT assay; type: functional, cell-based; settings: ECa-109, 72 h
Bel-7402 = experiment: Antiproliferative activity against human Bel-7402 cells measured after 72 hrs by MTT assay; type: functional, cell-based; settings: Bel-7402, 72 h
[3] = Solubility of the compound in 5% DMSO and 10% Solutol HS-15 saline solution; type: physicochemical
[4] = Cytotoxicity against human L02 cells measured after 72 hrs by MTT assay; type: toxicity, cell-based
[5] = Selectivity index, ratio of IC50 for human L02 cells to IC50 for human HepG2 cells; type: toxicity; settings: L02 cells and HepG2 cells, read-out: Ratio IC50

| SMILES | inhibition of growth at 1 µM (HepG2 [1]) | IC50 (HeLa) | IC50 (HepG2 [2]) | IC50 (PANC-1) | IC50 (ECa-109 cell line) | IC50 (Bel-7402) | solubility [3] | IC50 at 72 h [4] | selectivity ratio [5] |
| --- | --- | --- | --- | --- | --- | --- | --- | --- | --- |
| C[C@H]1CCC/C=C/[C@@H]2C[C@H](OC(=O)/C=C/c3ccccc3F)C[C@H]2[C@H](OC(=O)/C=C/c2ccccc2F)/C=C/C(=O)O1 | 8.4% |  |  |  |  |  |  |  |  |
| C[C@H]1CCC/C=C/[C@@H]2C[C@H](O)C[C@H]2[C@H](OC(=O)/C=C/c2ccccc2Br)/C=C/C(=O)O1 | 72.5% | 740 nM | 520 nM | 510 nM | 1140 nM | 640 nM |  |  |  |
| COc1cc(/C=C/C(=O)O[C@@H]2C[C@H]3[C@H](O)/C=C/C(=O)O[C@@H](C)CCC/C=C/[C@@H]3C2)cc(OC)c1OC | 4.2% |  |  |  |  |  |  |  |  |
| C[C@H]1CCC/C=C/[C@@H]2C[C@H](OC(=O)/C=C/c3ccc(N(C)C)cc3)C[C@H]2[C@H](O)/C=C/C(=O)O1 | 47% |  |  |  |  |  |  |  |  |
| Cc1cccc(/C=C/C(=O)O[C@@H]2C[C@H]3[C@H](O)/C=C/C(=O)O[C@@H](C)CCC/C=C/[C@@H]3C2)c1 | 34.7% | 1120 nM | 1890 nM | 360 nM | 2100 nM | 3290 nM |  |  |  |
| C[C@H]1CCC/C=C/[C@@H]2C[C@H](O)C[C@H]2[C@H](OC(=O)/C=C/c2ccc3c(c2)OCO3)/C=C/C(=O)O1 | 54.5% | 1650 nM | 1350 nM | 870 nM | 2200 nM | 1070 nM |  |  |  |
| Cc1ccccc1/C=C/C(=O)O[C@@H]1C[C@@H]2[C@H](/C=C/CCC[C@H](C)OC(=O)/C=C/[C@H]2OC(=O)/C=C/c2ccccc2C)C1 | 1.7% |  |  |  |  |  |  |  |  |
| C[C@H]1CCC/C=C/[C@@H]2C[C@H](OC(=O)/C=C/c3ccccc3)C[C@H]2[C@H](O)/C=C/C(=O)O1 | 62.9% | 530 nM | 1250 nM | 570 nM | 1210 nM | 1110 nM |  |  |  |
| C[C@H]1CCC/C=C/[C@@H]2C[C@H](OC(=O)/C=C/c3ccc(C(F)(F)F)cc3)C[C@H]2[C@H](OC(=O)/C=C/c2ccc(C(F)(F)F)cc2)/C=C/C(=O)O1 | 4.3% |  |  |  |  |  |  |  |  |
| C[C@H]1CCC/C=C/[C@@H]2C[C@H](O)C[C@H]2[C@H](OC(=O)/C=C/c2ccc(F)cc2)/C=C/C(=O)O1 | 62% | 750 nM | 1020 nM | 570 nM | 1140 nM | 790 nM |  |  |  |
| Cc1cccc(/C=C/C(=O)O[C@@H]2/C=C/C(=O)O[C@@H](C)CCC/C=C/[C@@H]3C[C@H](O)C[C@H]32)c1 | 77.8% | 870 nM | 560 nM | 370 nM | 1090 nM | 750 nM |  |  |  |
| C[C@H]1CCC/C=C/[C@@H]2C[C@H](OC(=O)/C=C/c3ccc4c(c3)OCO4)C[C@H]2[C@H](OC(=O)/C=C/c2ccc3c(c2)OCO3)/C=C/C(=O)O1 | 4.3% |  |  |  |  |  |  |  |  |
| C[C@H]1CCC/C=C/[C@@H]2C[C@H](OC(=O)/C=C/c3cccc(F)c3)C[C@H]2[C@H](OC(=O)/C=C/c2cccc(F)c2)/C=C/C(=O)O1 | 6.3% |  |  |  |  |  |  |  |  |
| Cc1ccccc1/C=C/C(=O)O[C@@H]1C[C@H]2[C@H](O)/C=C/C(=O)O[C@@H](C)CCC/C=C/[C@@H]2C1 | 28.9% | > 4000 nM | 2980 nM | 2790 nM | > 4000 nM | 2320 nM |  |  |  |
| C[C@H]1CCC/C=C/[C@@H]2C[C@H](OC(=O)/C=C/c3ccc(F)cc3)C[C@H]2[C@H](O)/C=C/C(=O)O1 | 69.7% | 3960 nM | 980 nM | 670 nM | 2860 nM | 1040 nM |  |  |  |
| C[C@H]1CCC/C=C/[C@@H]2C[C@H](OC(=O)/C=C/c3cccc(Cl)c3)C[C@H]2[C@H](O)/C=C/C(=O)O1 | 68.1% | 1100 nM | 890 nM | 660 nM | 1450 nM | 720 nM |  |  |  |
| C[C@H]1CCC/C=C/[C@@H]2C[C@H](OC(=O)/C=C/c3cccc(Cl)c3)C[C@H]2[C@H](OC(=O)/C=C/c2cccc(Cl)c2)/C=C/C(=O)O1 | 6.4% |  |  |  |  |  |  |  |  |
| COc1cc(/C=C/C(=O)O[C@@H]2/C=C/C(=O)O[C@@H](C)CCC/C=C/[C@@H]3C[C@H](O)C[C@H]32)cc(OC)c1OC | 65.1% | 1580 nM | 720 nM | 820 nM | 2100 nM | 1370 nM |  |  |  |
| C[C@H]1CCC/C=C/[C@@H]2C[C@H](OC(=O)/C=C/c3ccc4c(c3)OCO4)C[C@H]2[C@H](O)/C=C/C(=O)O1 | 3.7% |  |  |  |  |  |  |  |  |

| SMILES | inhibition of growth at 1 µM (HepG2 [1]) | IC50 (HeLa) | IC50 (HepG2 [2]) | IC50 (PANC-1) | IC50 (ECa-109 cell line) | IC50 (Bel-7402) | solubility [3] | IC50 at 72 h [4] | selectivity ratio [5] |
| --- | --- | --- | --- | --- | --- | --- | --- | --- | --- |
| C[C@H]1CCC/C=C/[C@@H]2C[C@H](OC(=O)/C=C/c3ccc(F)cc3)C[C@H]2[C@H](OC(=O)/C=C/c2ccc(F)cc2)/C=C/C(=O)O1 | 8.1% |  |  |  |  |  |  |  |  |
| C[C@H]1CCC/C=C/[C@@H]2C[C@H](O)C[C@H]2[C@H](OC(=O)/C=C/c2cccc(F)c2)/C=C/C(=O)O1 | 68.3% | 700 nM | 490 nM | 360 nM | 950 nM | 810 nM |  |  |  |
| Cc1ccccc1/C=C/C(=O)O[C@@H]1/C=C/C(=O)O[C@@H](C)CCC/C=C/[C@@H]2C[C@H](O)C[C@H]21 | 37.1% | 750 nM | 1860 nM | 630 nM | 2680 nM | 1770 nM |  |  |  |
| C[C@H]1CCC/C=C/[C@@H]2C[C@H](O)C[C@H]2[C@H](O)/C=C/C(=O)O1 [BREFELDIN A] | 94.4% | 70 nM | 180 nM | 80 nM | 140 nM | 170 nM | 1000 µg/mL (≈ 3.57 mM) | 100 nM | 0.56 |
| C[C@H]1CCC/C=C/[C@@H]2C[C@H](OC(=O)/C=C/c3ccccc3)C[C@H]2[C@H](OC(=O)/C=C/c2ccccc2)/C=C/C(=O)O1 | 20.4% |  |  |  |  |  |  |  |  |
| C[C@H]1CCC/C=C/[C@@H]2C[C@H](O)C[C@H]2[C@H](OC(=O)/C=C/c2cccc(Cl)c2)/C=C/C(=O)O1 | 77.4% | 800 nM | 730 nM | 470 nM | 740 nM | 640 nM |  |  |  |
| C[C@H]1CCC/C=C/[C@@H]2C[C@H](OC(=O)/C=C/c3ccccc3Br)C[C@H]2[C@H](OC(=O)/C=C/c2ccccc2Br)/C=C/C(=O)O1 | 3.1% |  |  |  |  |  |  |  |  |
| Cc1ccc(/C=C/C(=O)O[C@@H]2/C=C/C(=O)O[C@@H](C)CCC/C=C/[C@@H]3C[C@H](O)C[C@H]32)cc1 | 64% | 1310 nM | 1500 nM | 350 nM | 3590 nM | 970 nM |  |  |  |
| Cc1ccc(/C=C/C(=O)O[C@@H]2C[C@H]3[C@H](O)/C=C/C(=O)O[C@@H](C)CCC/C=C/[C@@H]3C2)cc1 | 30.8% | 1910 nM | 2870 nM | 1350 nM | 12500 nM | 2140 nM |  |  |  |
| C[C@H]1CCC/C=C/[C@@H]2C[C@H](O)C[C@H]2[C@H](OC(=O)/C=C/c2ccccc2)/C=C/C(=O)O1 | 64.7% | 1170 nM | 570 nM | 420 nM | 1120 nM | 970 nM |  |  |  |
| Cc1ccc(/C=C/C(=O)O[C@@H]2C[C@@H]3[C@H](/C=C/CCC[C@H](C)OC(=O)/C=C/[C@H]3OC(=O)/C=C/c3ccc(C)cc3)C2)cc1 | 5.2% |  |  |  |  |  |  |  |  |
| C[C@H]1CCC/C=C/[C@@H]2C[C@H](OC(=O)/C=C/c3ccccc3F)C[C@H]2[C@H](O)/C=C/C(=O)O1 | 71.1% | 2790 nM | 480 nM | 860 nM | 2420 nM | 820 nM |  |  |  |
| Cc1cccc(/C=C/C(=O)O[C@@H]2C[C@@H]3[C@H](/C=C/CCC[C@H](C)OC(=O)/C=C/[C@H]3OC(=O)/C=C/c3cccc(C)c3)C2)c1 | 6% |  |  |  |  |  |  |  |  |
| C[C@H]1CCC/C=C/[C@@H]2C[C@H](OC(=O)/C=C/c3cccc(F)c3)C[C@H]2[C@H](O)/C=C/C(=O)O1 | 71.1% | 2740 nM | 450 nM | 610 nM | 2140 nM | 920 nM |  |  |  |
| COc1cc(/C=C/C(=O)O[C@@H]2C[C@@H]3[C@H](/C=C/CCC[C@H](C)OC(=O)/C=C/[C@H]3OC(=O)/C=C/c3ccc(OCc4ccccc4)c(OC)c3)C2)ccc1OCc1ccccc1 | 2.7% |  |  |  |  |  |  |  |  |
| C[C@H]1CCC/C=C/[C@@H]2C[C@H](OC(=O)/C=C/c3ccccc3Br)C[C@H]2[C@H](O)/C=C/C(=O)O1 | 70.5% | 570 nM | 410 nM | 280 nM | 500 nM | 890 nM |  |  |  |
| C[C@H]1CCC/C=C/[C@@H]2C[C@H](O)C[C@H]2[C@H](OC(=O)/C=C/c2ccccc2F)/C=C/C(=O)O1 | 58.3% | 1050 nM | 1020 nM | 1000 nM | 1660 nM | 1060 nM |  |  |  |
| C[C@H]1CCC/C=C/[C@@H]2C[C@H](OC(=O)/C=C/c3ccc(C(F)(F)F)cc3)C[C@H]2[C@H](O)/C=C/C(=O)O1 | 86.7% | 460 nM | 420 nM | 460 nM | 550 nM | 450 nM |  |  |  |
| C[C@H]1CCC/C=C/[C@@H]2C[C@H](O)C[C@H]2[C@H](OC(=O)/C=C/c2ccc(C(F)(F)F)cc2)/C=C/C(=O)O1 | 74.9% | 340 nM | 510 nM | 580 nM | 600 nM | 610 nM |  |  |  |
